Consider four compounds from patent US20260174863A1, “ISOMERICALLY PURE BETA-CYCLODEXTRIN DERIVATIVES AND USES THEREOF” (Beren Therapeutics P.B.C., priority 2023, published 2026).

Data set [1] relates to differentiated human THP-1 monocytes. The data set is described as follows: Cytotoxicity assay, lactate dehydrogenase (LDH) release (CytoTox 96, Promega G1780). The data set is classed as cell-based. Particulars: samples from CEC assay, reference standard = non-isomerically pure hydroxypropyl beta-cyclodextrin. Here is the method: Cytotoxicity was measured using a lactate dehydrogenase (LDH) assay, according to the manufacturer's protocol (CytoTox 96® Non-Radioactive Cytotoxicity Assay, Promega, G1780). Supernatants and cell lysates from CEC assay served as samples. Briefly, 50 uL of supernatant and cell lysates were transferred into separate transparent 96-well plates. 50 uL CytoTox 96© Reagent was added to the wells, mixed by pipetting, and incubated for 10 minutes protected from light. 50 μL of Stop Solution was added, mixed by pipetting, and absorbance (OD) was measured at 490 nm in a plate reader. Phenol red-free RPMI with 10% […] and Cell Lysis Buffer (abcam, ab196985) served as background controls. Percent (%) cytotoxicity was measured as OD supernatant/(OD supernatant+OD cell lysate)×100%.
Lactate dehydrogenase (LDH) released from cells treated with compounds of the disclosure at concentrations of 0.1 mM, 0.3 mM and 1 mM, relative to LDH) released from cells treated with a reference standard, are summarized in Table 2. In the table, A denotes compounds releasing LDH in an amount of <70% of that of the reference standard; B denotes compounds releasing LDH in an amount of 71-95% of that of the reference standard; 0 denotes compounds releasing LDH in an amount of 96%-105% of that of the reference standard; +denotes compounds releasing LDH in an amount of 106%-120% of that of the reference standard; and ++denotes compounds releasing LDH in an amount of >120% of that of the reference standard The reference standard is a non-isomerically pure hydroxypropyl beta-cyclodextrin.

Data set [2] shares this test system. The data set is described as follows: CEC - Cholesterol Efflux Assay (abcam ab196985). In kind it is cell-based. Particulars: 4 h, reference standard = non-isomerically pure hydroxypropyl beta-cyclodextrin. Here is the method:
Cholesterol Efflux from differentiated human THP-1 monocytes was assessed according to the manufacturer's protocol (abcam, ab196985). Briefly, THP-1 monocytes were differentiated for 48 h in presence of 100 nM phorbol 12-myristate-13-acetate (PMA) in RPMI 1640 growth medium (10% FCS, 1% penicillin/streptomycin) in a humidified incubator (37° C., 5% CO2). Differentiated THP-1 macrophage-like cells were harvested, washed with PBS, resuspended in growth medium, seeded at 1×10^5 cells into 96-well plates, and allowed to adhere for 6h. Cells were washed with serum-free RPMI media, and labelled with 100 μL of fluorescent cholesterol labelling medium (50 uL Labeling Reagent+50 uL serum-free RPMI) for 1 h protected from light. Labeling medium was removed and replaced with 100 μL, 37° C. pre-warmed equilibration medium (50 uL Equilibration Buffer+[…] Reagent A +10 μL/mL Reagent B+50 uL serum-free RPMI) and incubated for 16±1 h in an incubator (37° C., 5% CO2). Equilibration medium was removed, and cells were washed with RPMI (w/o phenol red, w/o serum). Serum cholesterol acceptor was prepared by mixing 2 parts of Serum Treatment Reagent with 5 parts of human serum, incubated on ice for 20 minutes. The mix was centrifuged at 9,000×g for 10 minutes at 4° C., and supernatants were stored on ice until use. THP-1 cells were incubated for 4 h with 100 uL RPMI media (w/o phenol red, w/o serum), spiked with 10 uL of compound (10× stock in PBS) and 2 uL serum acceptor (2%), or RPMI media spiked with 10 uL PBS and 2 uL serum acceptor (negative control). Following incubation, plates were centrifuged and whole supernatants were transferred to an opaque 96-well plate. Remaining cells were lysed by adding 100 μL of Cell Lysis Buffer and shaking at 500 rpm for 25 minutes protected from light. Cell lysate was resuspended and transferred into an opaque 96-well. Plates containing supernatants or cell lysates were measured in a plate reader at 485 nm (excitation) and 523 nm (emission). Percent (%) cholesterol efflux was measured as RFU supernatant/(RFU supernatant +RFU cell lysate)×100%.
The cholesterol efflux from cells treated with compounds of the disclosure at concentrations of 0.1 mM, 0.3 mM and 1 mM, relative to cholesterol efflux from cells treated with a reference standard, are summarized in Table 1. In the table, A denotes compounds with a CEC of >126% of that of the reference standard and B denotes compounds with a CEC of 106% to 125% of that of the reference standard; 0 denotes compounds with a CEC of 96%-105% of that of the reference standard; and—denotes compounds with a CEC of 75%-95% of that of the reference standard. The reference standard is a non-isomerically pure hydroxypropyl beta-cyclodextrin.

Consider `COCCO[C@H]1[C@H]2O[C@H]3[C@H](O)[C@@H](OCCOC)[C@@H](O[C@H]4[C@H](O)[C@@H](OCCOC)[C@@H](O[C@H]5[C@H](O)[C@@H](OCCOC)[C@@H](O[C@H]6[C@H](O)[C@@H](OCCOC)[C@@H](O[C@H]7[C@H](O)[C@@H](OCCOC)[C@@H](O[C@H]8[C@H](O)[C@@H](OCCOC)[C@@H](O[C@@H]([C@@H]1O)[C@@H](CO)O2)O[C@@H]8CO)O[C@@H]7CO)O[C@@H]6CO)O[C@@H]5CO)O[C@@H]4CO)O[C@@H]3CO` [Compound 1], for which the “Release of lactate dehydrogenase from cells treated with compounds, relative to reference standard” value (from here on “Release … relative to reference standard”) in data set [1] (0.1 mM), in data set [1] (0.3 mM) and in data set [1] (1 mM) was “B (B denotes compounds releasing LDH in an amount of 71-95% of that of the reference standard)” in each case. For the same compound, the “Cholesterol efflux from cells treated with compounds, relative to reference standard” value in data set [2] (0.1 mM), in data set [2] (0.3 mM) and in data set [2] (1 mM) was 0 (0 denotes compounds with a CEC of 96%-105% of that of the reference standard) in each case.

Consider `OCC(O)CO[C@H]1[C@H]2O[C@H]3[C@H](O)[C@@H](OCC(O)CO)[C@@H](O[C@H]4[C@H](O)[C@@H](OCC(O)CO)[C@@H](O[C@H]5[C@H](O)[C@@H](OCC(O)CO)[C@@H](O[C@H]6[C@H](O)[C@@H](OCC(O)CO)[C@@H](O[C@H]7[C@H](O)[C@@H](OCC(O)CO)[C@@H](O[C@H]8[C@H](O)[C@@H](OCC(O)CO)[C@@H](O[C@@H]([C@@H]1O)[C@@H](CO)O2)O[C@@H]8CO)O[C@@H]7CO)O[C@@H]6CO)O[C@@H]5CO)O[C@@H]4CO)O[C@@H]3CO` (stereo partly drawn) [Compound 3], for which the “Release … relative to reference standard” value is “++ (++denotes compounds releasing LDH in an amount of >120% of that of the reference standard)” in data set [1] (0.1 mM), “+ (+denotes compounds releasing LDH in an amount of 106%-120% of that of the reference standard)” in data set [1] (0.3 mM) and 0 (0 denotes compounds releasing LDH in an amount of 96%-105% of that of the reference standard) in data set [1] (1 mM). Besides, the “Cholesterol efflux from cells treated with compounds, relative to reference standard” value in data set [2] (0.1 mM), in data set [2] (0.3 mM) and in data set [2] (1 mM) was “− (—denotes compounds with a CEC of 75%-95% of that of the reference standard)” throughout.

Regarding `CC(O)CO[C@@H]1[C@@H](O)[C@H]2O[C@H]3[C@H](OCC(C)O)[C@@H](O)[C@@H](O[C@H]4[C@H](OCC(C)O)[C@@H](O)[C@@H](O[C@H]5[C@H](OCC(C)O)[C@@H](O)[C@@H](O[C@H]6[C@H](OCC(C)O)[C@@H](O)[C@@H](O[C@H]7[C@H](OCC(C)O)[C@@H](O)[C@@H](O[C@H]8[C@H](OCC(C)O)[C@@H](O)[C@@H](O[C@@H]1[C@@H](CO)O2)O[C@@H]8CO)O[C@@H]7CO)O[C@@H]6CO)O[C@@H]5CO)O[C@@H]4CO)O[C@@H]3CO` (stereo partly drawn) [Compound 4], the “Release … relative to reference standard” value in data set [1] (0.1 mM), in data set [1] (0.3 mM) and in data set [1] (1 mM) was “++ (++denotes compounds releasing LDH in an amount of >120% of that of the reference standard)” throughout. Also, the “Cholesterol efflux from cells treated with compounds, relative to reference standard” value in data set [2] (0.1 mM), in data set [2] (0.3 mM) and in data set [2] (1 mM) was “− (—denotes compounds with a CEC of 75%-95% of that of the reference standard)” each time.

Turning to `CC(O)CO[C@H]1[C@H]2O[C@H]3[C@H](O)[C@@H](OCC(C)O)[C@@H](O[C@H]4[C@H](O)[C@@H](OCC(C)O)[C@@H](O[C@H]5[C@H](O)[C@@H](OCC(C)O)[C@@H](O[C@H]6[C@H](O)[C@@H](OCC(C)O)[C@@H](O[C@H]7[C@H](O)[C@@H](OCC(C)O)[C@@H](O[C@H]8[C@H](O)[C@@H](OCC(C)O)[C@@H](O[C@@H]([C@@H]1O)[C@@H](CO)O2)O[C@@H]8CO)O[C@@H]7CO)O[C@@H]6CO)O[C@@H]5CO)O[C@@H]4CO)O[C@@H]3CO` (stereo partly drawn) [Compound 5], the “Release … relative to reference standard” value in data set [1] (0.1 mM), in data set [1] (0.3 mM) and in data set [1] (1 mM) was 0 (0 denotes compounds releasing LDH in an amount of 96%-105% of that of the reference standard) in each case. Further, the “Cholesterol efflux from cells treated with compounds, relative to reference standard” value in data set [2] (0.1 mM), in data set [2] (0.3 mM) and in data set [2] (1 mM) was “− (—denotes compounds with a CEC of 75%-95% of that of the reference standard)” each time.
